{"source": "patent US20030083250A1", "about": "“Anti-tumor chemotherapy by administration of cyclophosphamide and erythropoeitin” (priority 2001, published 2003)", "key": {"[1]": {"tested_on": "Male Sprague-Dawley rats", "experiment": "Blood cell parameters (automated hematology analyzer) in rats with carboplatin-induced anemia, with or without rHuEPO", "format": "in vivo, rat", "details": "for CHb (hemoglobin concentration): day of cyclophosphamide treatment (Day 5 after tumor implantation), carboplatin 50 mg/kg i.v. on Day -4, rHuEPO 1000 IU/kg s.c. three times per week", "description": "(§1) Male Sprague-Dawley rats (Charles River Wiga, Sulzfeld, Germany; body weight 100 to 160 g) housed in our animal care facility were used in the study. Animals were allowed access to food and acidified water ad libitum before and throughout the investigation. All experiments had previously been approved by the regional animal ethics committee and were conducted in accordance with the German Law for Animal Protection and the UKCCCR Guidelines [United Kingdom Coordinating Committee on Cancer Research (UKCCCR) guidelines for the welfare of animals in experimental neoplasia (2 nd edit). Br. J. Cancer, (1998) 77:1-10].\n(§2) Prolonged anemia was induced by a single injection of carboplatin (Sigma-Aldrich, Steinheim, Germany) at a dose of 50 mg/kg body weight (dissolved in isotonic saline at a concentration of 20 mg/ml) into the tail vein four days before tumor implantation.\n(§3) Recombinant human erythropoietin (epoetin alpha, ERYPO 4000®; Janssen-Cilag, Neuss, Germany) in isotonic NaCl solution was administered (1000 IU/kg) three times per week over sixteen days by s.c. injection starting eleven days before tumor implantation. Control animals received equivalent volumes of the solvent (0.5 ml/ kg).\nBesides tumor growth, blood cell parameters were assessed using a multi-parameter, automated hematology analyzer (Ac-T8; Beckman-Coulter, Krefeld, Germany) whereby erythrocyte, white blood cell and platelet counts together with the mean cell volume (MCV) were measured by an impedance technique and the hemoglobin concentration by a photometric method. In addition, the analyzer uses the measured values to calculate several other parameters (e.g., hematocrit, mean corpuscular hemoglobin content [MCH] and mean corpuscular hemoglobin concentration [MCHC]). All measurements were performed using a sample of venous blood (20 μl) taken from a tail vein.\n(§4) Results are expressed as means±standard error of the mean (SEM). Differences between the groups were assessed by the two-tailed Wilcoxon test for unpaired samples. The significance level was set at α=5% for all comparisons. For characterizing the effect of chemotherapy on tumor growth, the growth delay induced by cyclophosphamide was calculated."}, "[2]": {"tested_on": "DS-sarcoma", "experiment": "Growth of subcutaneous DS-sarcomas in rats (tumor volume, volume doubling time, growth delay after cyclophosphamide)", "format": "in vivo, rat", "details": "for volume doubling time / impact on tumor growth rate per se: tumors not treated with cyclophosphamide; for impact on tumor growth rate per se: carboplatin four days before implantation, rHuEPO 1000 IU/kg three times per week; for volume doubling time during the regrowth period: after cyclophosphamide; for growth delay following chemotherapy: at the 1.3 ml tumor volume level, cyclophosphamide 60 mg/kg i.p. Day 5", "description": "as §1\nSolid DS-sarcomas were induced by injecting DS-sarcoma cells (0.4 ml approximately 10^4 cells/μl) subcutaneously into the hind food dorsum. […] Tumor volumes were determined by measuring the three orthogonal diameters of the tumor and using an ellipsoid approximation with the formula: V=d1×d2×d3×π/6. From the volume growth curves the volume doubling time was calculated during exponential tumor growth.\nas §2, §3\nAnimals treated with equivalent volumes of the solvent (isotonic saline 6 ml/kg) served as controls.\nGroup 1 (non-anemic): Animals received cyclophosphamide on Day 5 after tumor implantation.\nGroup 2 (anemic): Animals treated for four days before tumor implantation with carboplatin for anemia induction. Cyclophosphamide was administered on Day 5 after implantation.\nGroup 3 (anemic, rHuEPO-treated): Animals treated with rHuEPO three times per week from eleven days before tumor implantation and up until the day of cyclophosphamide application. Carboplatin (for anemia induction) was administered on Day −4 and cyclophosphamide was applied on Day 5.\nControls for all three experimental groups received equivalent volumes of the solvent instead of cyclophosphamide on Day 5 after tumor implantation.\nas §4"}, "[3]": {"tested_on": "FSaIIC Murine Fibrosarcoma", "details": "experimental sarcomas of mice; cited from earlier work"}, "[4]": {"tested_on": "human ovarian cancer xenographs", "details": "EPO alone (control group); cited from earlier work"}, "[5]": {"tested_on": "experimental tumours", "details": "in vivo; cited from earlier work"}, "[6]": {"tested_on": "anemic cancer patients", "details": "150 IU/kg t.i.w. vs placebo; after the first month of therapy; platinum or non-platinum chemotherapy; cited from earlier work"}, "[7]": {"tested_on": "experimental tumors", "details": "after correcting anemia; 76% in moderate anemia, 21% before; cited from earlier work"}, "[8]": {"details": "day of cyclophosphamide treatment, mean ± SEM"}}, "note": "Entries after “also recorded” stand apart in the source; their conditions may differ.", "data": [{"compound": "N.N.O=C([O-])C1(C(=O)[O-])CCC1.[Pt+2]", "note": "[carboplatin]", "values": [{"measurement": "CHb (hemoglobin concentration)", "setting": "[1]; mean ± SEM", "result": 98, "unit": "g/L"}, {"measurement": "CHb (hemoglobin concentration)", "setting": "[1]; mean ± SEM, listed as CARBOPLATIN", "result": "98 ± 3", "unit": "g/L"}, {"measurement": "Hematocrit", "setting": "[1]; [8]", "result": "28 ± 1", "unit": "%"}, {"measurement": "Mean Corpuscular Hb Concentration (MCHC)", "setting": "[1]; [8]", "result": "348 ± 5", "unit": "g/L"}, {"measurement": "Mean Corpuscular Hemoglobin (MCH)", "setting": "[1]; [8]", "result": "22 ± 1", "unit": "pg"}, {"measurement": "Mean Corpuscular Volume (MCV)", "setting": "[1]; [8]", "result": "63 ± 1", "unit": "fL"}, {"measurement": "RBC count", "setting": "[1]; [8]", "result": "4.5 ± 0.2 10^6/μl"}, {"measurement": "mean cHb", "setting": "[1]; nine days after a single dose of carboplatin 50 mg/kg i.v., start approximately 130 g/l", "result": "about 100 g/l"}, {"measurement": "volume doubling time", "setting": "[2]", "result": "approximately 1.8 days"}, {"measurement": "impact on tumor growth rate per se", "setting": "[2]", "result": "does not affect the growth of DS sarcomas; also recorded: no impact per se on the growth rate of the tumors; also recorded: no effect on the growth rate of DS-sarcomas"}, {"measurement": "cell kill in oxygenated versus hypoxic tumor areas", "setting": "[3]", "result": "more pronounced cell kill"}]}, {"compound": "O=P1(N(CCCl)CCCl)NCCCO1", "note": "(stereo not drawn) [cyclophosphamide]", "values": [{"measurement": "volume doubling time during the regrowth period", "setting": "[2]; anemic group", "result": 4.0, "unit": "days"}, {"measurement": "volume doubling time during the regrowth period", "setting": "[2]; non-anemic group", "result": 4.6, "unit": "days"}, {"measurement": "growth delay following chemotherapy", "setting": "[2]; anemic (carboplatin) group", "result": 8.6, "unit": "days"}, {"measurement": "growth delay following chemotherapy", "setting": "[2]; non-anemic group", "result": "approximately 13.3 days"}, {"measurement": "growth delay", "setting": "[2]; single dose 60 mg/kg i.p., stated in the methods, not curative", "result": "approximately eight to ten"}, {"measurement": "cell kill in oxygenated versus hypoxic tumor areas", "setting": "[3]", "result": "more pronounced cell kill"}]}, {"compound": "rHuEPO: Recombinant human erythropoietin (epoetin alpha, ERYPO 4000; Janssen-Cilag)", "values": [{"measurement": "changes in tumor growth", "setting": "[4]", "result": "no changes in tumor growth"}, {"measurement": "effect of correction of anemia on radiosensitivity", "setting": "[5]", "result": "able to improve the radiosensitivity"}, {"measurement": "cHb", "setting": "[1]; continuous rHuEPO treatment in otherwise untreated rats, within one week", "result": 153, "unit": "g/L"}, {"measurement": "CHb (hemoglobin concentration)", "setting": "[1]; mean ± SEM", "result": 137, "unit": "g/L"}, {"measurement": "effect on carboplatin-induced anemia at the time of chemotherapy", "setting": "[1]; rHuEPO for approximately one week prior to carboplatin application", "result": "prevention (or reversal) of the carboplatin-induced anemia"}, {"measurement": "effect of reversing anemia on cytotoxicity of cyclophosphamide chemotherapy", "setting": "[2]; DS sarcomas, anemia cHb=98 g/l", "result": "significantly increases the cytotoxicity of this chemotherapy"}, {"measurement": "volume doubling time during the regrowth period", "setting": "[2]; rHuEPO-treated animals", "result": 4.3, "unit": "days"}, {"measurement": "growth delay following chemotherapy", "setting": "[2]; rHuEPO-treated group (carboplatin + rHuEPO)", "result": "approximately 13.3 days"}, {"measurement": "volume doubling time", "setting": "[2]", "result": "approximately 1.8 days"}, {"measurement": "impact on tumor growth rate per se", "setting": "[2]", "result": "no impact per se on the growth rate of the tumors; also recorded: no impact on the tumor growth per se"}, {"measurement": "effect on hematocrit and transfusion requirements", "setting": "[6]", "result": "increase hematocrit and decrease transfusion requirements"}, {"measurement": "fraction of hypoxic pO2 values ≦2.5 mmHg", "setting": "[7]", "result": 55, "unit": "%"}]}, {"compound": "N[C@@H](Cc1ccc(N(CCCl)CCCl)cc1)C(=O)O", "note": "[melphalan]", "values": [{"measurement": "cell kill in oxygenated versus hypoxic tumor areas", "setting": "[3]", "result": "more pronounced cell kill"}]}]}
